Molecular target: T1, CrmG (Actinoalloteichus sp. WH1-2216-6, UniProt H8Y6N2, W223A)
T1 construct: pET28a, N-terminal His-tag and 14 additional vector residues; expressed in E. coli BL21; dimer (114 kDa by DLS)
Experiment: UV-vis conversion of PLP to PMP
Format: biochemical
Settings: 0.02 mM CrmG W223A, 0.2 mM PLP, 2 mM amino donor (L-Glu, L-Gln or L-Ala), 50 mM Tris pH 7.5, 30 °C

T1 sequence (H8Y6N2 entry or part of it W223A): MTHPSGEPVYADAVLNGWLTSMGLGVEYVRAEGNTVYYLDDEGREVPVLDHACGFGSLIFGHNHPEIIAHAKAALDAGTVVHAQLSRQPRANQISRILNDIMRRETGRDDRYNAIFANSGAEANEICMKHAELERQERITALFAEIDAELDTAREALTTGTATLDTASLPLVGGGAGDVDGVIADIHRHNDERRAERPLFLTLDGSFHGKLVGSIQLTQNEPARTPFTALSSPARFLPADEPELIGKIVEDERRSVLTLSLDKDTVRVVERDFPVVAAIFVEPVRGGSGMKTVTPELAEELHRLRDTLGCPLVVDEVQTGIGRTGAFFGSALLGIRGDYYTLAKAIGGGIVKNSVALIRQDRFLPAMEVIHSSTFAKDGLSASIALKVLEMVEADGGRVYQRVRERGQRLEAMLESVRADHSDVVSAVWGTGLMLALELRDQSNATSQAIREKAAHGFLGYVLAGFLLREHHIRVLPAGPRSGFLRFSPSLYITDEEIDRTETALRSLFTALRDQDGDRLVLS

Cc1ncc(COP(=O)(O)O)c(C=O)c1O [PLP]
UV-vis conversion of PLP to PMP: CrmG catalyzing PLP conversion to PMP is greatly improved by the mutation W223A

Reference: paper PMC7438487, “Structural studies reveal flexible roof of active site responsible for ω-transaminase CrmG overcoming by-product inhibition” (Communications Biology, 2020)
